This is an account of results in patent publication US11000033B2, “Ketone or oxime compound, and herbicide” (NISSAN CHEMICAL CORPORATION, priority 2014, dated 2021).

Common to all, as to type: in vivo
The test system of series [1] is Echinochloa crus-galli var. crus-galli. As to the kind of experiment: Test Example 5: herbicidal effect by foliage application, plastic box (symbol H). Conditions: 269 g/ha, 3 weeks after application. The essentials: (§1)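 Visual herbicidal score, taken three weeks post-application, of seedlings sprayed on the foliage with water-diluted emulsion at a predetermined amount; plants were 14 days old, greenhouse-raised at 25° C. to 30° C.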

The subject of the next series is Chenopodium album. In words: Test Example 5: herbicidal effect by foliage application, plastic box (symbol O). Particulars: 269 g/ha, 3 weeks after application. The essentials:
as §1

For series [2], the system named is Echinochloa crus-galli var. crus-galli. As to the kind of experiment: Test Example 3: herbicidal effect by foliage application, Wagner pot (symbol H). Conditions: application herbicide amount 269 g/ha. In a few lines:
(§2)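 Foliar spray of a water-diluted emulsion at a predetermined herbicide amount, applied to 14-day-old plants. Seedlings were raised in flooded alluvial soil (0.1–0.5 cm water) at 25–30 °C in a greenhouse. Injury was rated after 3 weeks against fixed criteria.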

In another series the test system is Amaranthus retroflexus. In words: Test Example 5: herbicidal effect by foliage application, plastic box (symbol N). Particulars: 269 g/ha, 3 weeks after application. In a few lines: as §1
Another series relates to Monochoria vaginalis. As to the kind of experiment: Test Example 2: herbicidal activity, application during weed generation in submerged conditions (symbol C). Conditions: Table 23; application herbicide amount 269 g/ha; grade 0-5 by criteria of Test Example 1. The essentials:
(§3)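 Scoring of herbicidal effect took place 3 weeks after treatment, using the criteria of the earlier test. Treatment was water-surface application of diluted emulsifiable compound at a set dose. Plants were at one- to two-leaf stage in submerged alluvial soil (4 cm depth), greenhouse 25-30° C.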

The subject of series [3] is Stellaria media. In words: Test Example 5: herbicidal effect by foliage application, plastic box (symbol P). Particulars: 269 g/ha, 3 weeks after application. The essentials:
as §1

Series [4] concerns Alopecurus myosuroides. In words: Test Example 4: herbicidal effect by soil treatment (symbol J). Conditions: application herbicide amount 269 g/ha. In a few lines:
(§4)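 Seeds were sown in sterilized diluvial soil, covered with about 1.5 cm of soil, and the soil surface was sprayed with a water-diluted emulsion of the compound at a predetermined rate. Plants grew in a greenhouse at 25° C. to 30° C.; effects were scored visually 3 weeks after application.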

Another series relates to rice. As to the kind of experiment: Test Example 4: effect on crop by soil treatment (symbol b). Particulars: application herbicide amount 269 g/ha. The essentials: (§5)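 The test used sterilized diluvial soil. Seed was set down in spots and overlaid with about 1.5 cm of soil before growth in a greenhouse kept at 25° C. to 30° C.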
The next series concerns Scirpus juncoides. In words: Test Example 2: herbicidal activity, application during weed generation in submerged conditions (symbol B). Conditions: Table 23; application herbicide amount 269 g/ha; grade 0-5 by criteria of Test Example 1. In a few lines: as §3
In a further series the test system is rice plant. In words: Test Example 5: effect on crop by foliage application, plastic box (symbol b). Conditions: 269 g/ha, 3 weeks after application. The essentials: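 Greenhouse test at 25° C. to 30° C. Seeds of crops and weeds were spot-sown in boxes of sterilized diluvial soil under roughly 1.5 cm soil cover, then grown for foliage treatment.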
The test system of series [5] is Stellaria media. As to the kind of experiment: Test Example 4: herbicidal effect by soil treatment (symbol P). Conditions: application herbicide amount 269 g/ha. In a few lines:
as §4

The subject of series [6] is Alopecurus myosuroides. As to the kind of experiment: Test Example 5: herbicidal effect by foliage application, plastic box (symbol J). Conditions: 269 g/ha, 3 weeks after application. In a few lines:
as §1

The next series has as its system Leptochloa chinensis. In words: Test Example 3: herbicidal effect by foliage application, Wagner pot (symbol D). Particulars: application herbicide amount 269 g/ha. In a few lines:
as §2

For the next series, the system named is wheat. As to the kind of experiment: Test Example 4: effect on crop by soil treatment (symbol e). Particulars: application herbicide amount 269 g/ha. In a few lines:
as §5

Another series deals with Setaria viridis. In words: Test Example 4: herbicidal effect by soil treatment (symbol G). Particulars: application herbicide amount 269 g/ha. In a few lines:
as §4

Series [7] has as its system Echinochloa oryzacola Vasing. In words: Test Example 2: herbicidal activity, application during weed generation in submerged conditions (symbol A). Conditions: Table 23; application herbicide amount 269 g/ha; grade 0-5 by criteria of Test Example 1. In a few lines: as §3
Another series relates to Digitaria ciliaris. In words: Test Example 4: herbicidal effect by soil treatment (symbol F). Particulars: application herbicide amount 269 g/ha. The essentials: as §4
A further series has as its system Avena fatua. In words: Test Example 4: herbicidal effect by soil treatment (symbol I). Particulars: application herbicide amount 269 g/ha. In a few lines:
as §4

The subject of another series is Lolium multiflorum Lam. In words: Test Example 4: herbicidal effect by soil treatment (symbol K). Conditions: application herbicide amount 269 g/ha. The essentials: as §4

Structures are written as SMILES.

`CC(=O)C(C)C1CC(O)=C(c2c(C)cc(C)cc2C)C1=O` (stereo not shown) [2-005]: the “H: Echinochloa crus-galli var. crus-galli, herbicidal effect grade” value in series [1] is listed as 5 (Herbicidal ratio of 90% or more (almost completely withered)). Also, the “O: Chenopodium album, herbicidal effect grade” value in the series on Chenopodium album is reported as 0 (Herbicidal ratio of 5% or lower (almost no effect)). For the same molecule, in [2], the “herbicidal effect on H (Echinochloa crus-galli var. crus-galli), grade 0-5” value is given as 5 (Herbicidal ratio of 90% or more (almost completely withered)). The “N: Amaranthus retroflexus, herbicidal effect grade” value in the series with Amaranthus retroflexus is on record as 0 (Herbicidal ratio of 5% or lower (almost no effect)). Moreover, the “Herbicidal effect grade, C: Monochoria vaginalis” value in the series with Monochoria vaginalis is recorded as 0 (Herbicidal ratio of 5% or lower (almost no effect)). The “P: Stellaria media, herbicidal effect grade” value with Stellaria media [3] and with Stellaria media [5] was 0 (Herbicidal ratio of 5% or lower (almost no effect)) throughout. In addition, the “J: Alopecurus myosuroides, herbicidal effect grade” value in the series with Alopecurus myosuroides [4] was 4 (Herbicidal ratio of 70% or higher and lower than 90%); in the series on Alopecurus myosuroides [6], 5 (Herbicidal ratio of 90% or more (almost completely withered)). Besides, the “b: directly sowed rice plant, effect on crop grade” value with rice and in the series on rice plant was 5 (Herbicidal ratio of 90% or more (almost completely withered)) each time. In addition, the “Herbicidal effect grade, B: Scirpus juncoides” value in the series on Scirpus juncoides was 0 (Herbicidal ratio of 5% or lower (almost no effect)). Also, the “herbicidal effect on D (Leptochloa chinensis), grade 0-5” value in the series on Leptochloa chinensis was 5 (Herbicidal ratio of 90% or more (almost completely withered)). In addition, the “e: wheat, effect on crop grade” value in the series on wheat is 0 (Herbicidal ratio of 5% or lower (almost no effect)). Besides, the “G: Setaria viridis, herbicidal effect grade” value in the series with Setaria viridis was 4 (Herbicidal ratio of 70% or higher and lower than 90%). The “Herbicidal effect grade, A: Echinochloa oryzacola Vasing.” value in [7] was 3 (Herbicidal ratio of 40% or higher and lower than 70%). For the same molecule, the “F: Digitaria ciliaris, herbicidal effect grade” value with Digitaria ciliaris is given as 5 (Herbicidal ratio of 90% or more (almost completely withered)). Also, the “I: Avena fatua, herbicidal effect grade” value in the series with Avena fatua was 0 (Herbicidal ratio of 5% or lower (almost no effect)). For the same molecule, the “K: Lolium multiflorum Lam., herbicidal effect grade” value with Lolium multiflorum Lam. is 5 (Herbicidal ratio of 90% or more (almost completely withered)).
